Assay results as given in patent US20050020544A1, “Bicyclic CB2 cannabinoid receptor ligands” (priority 2002, published 2005).
Like-named read-outs stand apart in the source and are kept apart here.

Assays:
[1] = system: IL-1β secretion from activated RAW 264.7 macrophages; assay: Inhibition of IL-1β in LPS activated macrophages (ELISA); type: cell-based; settings: Mus musculus; for inhibition at 10 µM: RAW264.7, 24 h, read-out: inhibition of IL-1β secretion
Description: The technique used to quantify the amount of a given protein in a liquid sample, either tissue culture supernatant or body fluid, is based on Enzyme Linked ImmunoSorbent Assay (ELISA) methodology. Either commercially available or established in house, the assay is based on the capture of the protein of interest by specific antibodies bound to the bottom of an ELISA plate well. […] Again the unbound material is washed away, the samples are then incubated with the appropriate substrate yielding a calorimetric reaction. The reaction is stopped and reading is performed in a spectrophotometer at the appropriate wavelength. Samples are tested at least in duplicate and the appropriate standard curve, consisting of serial dilutions of the recombinant target protein, is incorporated on each plate. Concentration of the protein in the sample is calculated from the standard curve.
RAW 264.7 macrophages, a mouse cell line (ATCC # TIB-71), were grown in Dulbecco's modified Eagle's medium (DMEM) with 4 mM L-glutamine adjusted to contain 1.5 g/L sodium bicarbonate, 4.5 g/L glucose, and 10% heat inactivated fetal bovine serum. Cells were grown in tissue culture flasks and seeded at appropriate density into 24 wells tissue culture plates. 0.5×10^6 Raw cells in one milliliter were stimulated with 2 μg/ml Lipopolysaccharide E. coli 055:B5 (DIFCO Laboratories). The mouse macrophages were pre-treated for one hour with controls or 10 μM of bicyclic CB2 ligands and later on activated with LPS. Dexamethasone was used as a positive control at 50 nM. Supernatant was collected 4 hours (for PGE2) and 24 hours (for IL-1β and TNF-α) after activation, and the levels of the inflammatory agent under study were determined by ELISA, as previously described. Inhibition was calculated versus vehicle treated cells.

[2] = system: Female Balb/c mice
Description: The purpose of this study is to test in vivo the anti-inflammatory activity of the compounds in paw edema induced by injection of 1% carrageenan in the animal hind paw. Female Balb/c mice (20 g average body weight, Harlan, Israel) are anesthetized with a combination of xylazine and pentobarbitone diluted in sterile saline, 15 and 6 mg/kg i.p. respectively. Anesthetized mice are injected subcutaneously, in the subplantar region of one (right) paw with 0.05 ml of 1% w/v Carrageenan in sterile water. […] The test compounds, including known anti-inflammatory controls, are dissolved in CREMOPHOR EL®:ethanol and further diluted 1:20 or 1:50 in sterile saline prior to i.p. injection that takes place immediately before the carrageenan injection. Three hours after injection the animals are resedated following the previously described procedure. Paw thickness is measured using a dial thickness gauge (Spring-dial, constant low pressure gauge, Mitutoyo, TG/L-1, 0.01 mm) and paw volume is measured using a plethysmometer (model #7150, Ugo Basile, Italy). Paw Edema is expressed as the difference between the right treated and the left untreated paws of the same animal, either as Δ Paw Volume (ΔPV) in millimeters cube or as Δ Paw Thickness (ΔPT) in millimeters. Each group comprises at least 10 animals. […] At the end of the study, animals are euthanized with an i.p. injection of 100 mg/kg pentobarbitone.
The differences among various treatment groups are analyzed by analysis of variance (ANOVA) followed by post-hoc Fisher test. A value of p<0.05 is considered to be statistically significant.
For sake of comparison, known anti-inflammatory drugs such as Celecoxib and Dexamethasone yield respectively in the range of relevant doses 7% and 26% reduction in paw thickness at 0.1 mg/kg, 16% and 31% at 0.25 mg/kg and 24% and 33% at 0.5 mg/kg. […] It should be kept in mind that these commercially available drugs display serious side effects that prevent chronic uses without complementary protective medication.

[3] = system: Adult female BALB/c mice; type: in vivo, mouse; settings: i.p. twice
Description: Adult female BALB/c mice (20 g average body weight, Harlan, Israel) were sensitized on day 0 and day 1 by application of 30 μl of 0.15% Dinitrofluorobenzene (DNFB) diluted in acetone on the shaved skin of the abdomen. On day 6 the animals were challenged by application of 10 μl of DNFB in acetone on one ear. The contralateral ear was not challenged but received the application of 10 μl acetone. Test compounds were administered at increasing doses from 0 to 15 mg/kg i.p. twice, the first injection was immediately after DNFB challenge (on day 6) and the second injection was 16 hours post challenge (on day 7). Each treatment group comprised at least 7 animals. Dexamethasone (DXM) was used as positive control. Ear thickness was determined (in 0.01 mm units) 24 hours after challenge (and 6 hours after second treatment on day 7) using a dial thickness gauge (Mitutoyo, Japan).
Results are analyzed as ear thickness of DNFB treated over DNFB untreated contralateral ear. The impact of the test compound was further assessed by comparing its mean impact on the animals of the treatment group to the response generated by the appropriate vehicle only.

[4] = target: T1, human CB1 receptor (Homo sapiens, UniProt P21554); assay: biochemical; type: binding; settings: displacement of [3H]CP55940, hCB1 HEK-293 membranes; read-out: CB1 IC50
T1 construct: purchased Perkin Elmer/NEN; host or cells: HEK-293 cells, stably transfected (membranes)
Description: (§1) In the present invention, binding affinity is represented by the IC50 value, namely the concentration of a test compound that will displace 50% of a radiolabeled agonist from the CB receptors. […] Preferably these ratios will be obtained for human CB1 and CB2 receptors. The selectivity toward CB2, denoted CB2/CB1 affinity, is calculated as the IC50 value obtained by the test compound for the displacement of the CB1 specific radioligand divided by the IC50 value obtained for the displacement of the CB2 specific radioligand, i.e. the IC50 CB1/IC50 CB2.
The CB1 binding assays were performed by testing the ability of the new compounds to displace [^3H]CP55940 from the CB1 receptor on membranes derived from hCB1 stably transfected HEK-293 cells (Perkin Elmer/NEN). Membranes were diluted in the assay buffer (50 mM Tris-HCl, 2.5 mM EDTA, 5 mM MgCl2, 1 mg/ml BSA, pH=7.4) to 500 μg protein/ml. 50 μl of diluted membranes (25 μg) were incubated with [^3H]CP55940 in the presence or absence of the bicyclic test compounds in a total volume of 0.5 ml. Tested compounds were dissolved in DMSO and diluted in the assay buffer to a final concentration of 0.1% solvent. Control samples were added with identical amount of vehicle. Non-specific binding was measured by the addition of 10 μM of WIN 55212-2. Following 1.5 hours incubation at 30° C. reactions were filtered through Whatman 934A/H filters (presoaked with 0.1% Polyethylenimine (PEI)).
(§2) Binding to CB1 is measured by competitive inhibition of [^3H]CP55940 in HEK-293 cells stably transfected with the human CB1 receptor gene. Binding to CB2 is measured by competitive inhibition of [^3H]WIN55212-2 in CHO cells stably transfected with the human CB2 receptor gene.

[5] = target: human CB2 receptor (Homo sapiens, UniProt P34972); assay: biochemical; type: binding; design: purchased Perkin Elmer/NEN; host or cells: CHO cells, stably transfected (membranes); settings: for CB2/CB1 affinity ratio: IC50 CB1/IC50 CB2; for IC50: displacement of [3H]WIN 55212-2, hCB2 CHO membranes
Description: as §1
The affinities of the novel bicyclic analogs to the CB2 receptor were determined by their ability to displace [^3H]WIN 55212-2 from the receptor in membranes derived from hCB2 stably transfected CHO cells (Perkin Elmer/NEN). Membranes were diluted in assay buffer (10 mM HEPES, 1 mM MgCl2, 1 mM EDTA, 0.3 mg/ml BSA, pH=7.4) to 500 μg protein/ml. 50 μl of diluted membranes (25 μg) were incubated with 0.8 nM of [^3H]WIN 55212-2 in the presence or absence of several concentrations of the bicyclic test compounds in a total volume of 1 ml. Tested compounds were dissolved and diluted as previously described for the hCB1 assay. Non-specific binding was measured by the addition of 10 μM CP 55940. Following 40 minutes incubation at 30° C. reactions were filtered as previously described. Filters for all binding assays were counted in a β-counter and log of analog concentration versus % of binding was plotted. IC50 values were extrapolated from this plot.
as §2

human CB2 receptor, sequence (P34972 whole entry): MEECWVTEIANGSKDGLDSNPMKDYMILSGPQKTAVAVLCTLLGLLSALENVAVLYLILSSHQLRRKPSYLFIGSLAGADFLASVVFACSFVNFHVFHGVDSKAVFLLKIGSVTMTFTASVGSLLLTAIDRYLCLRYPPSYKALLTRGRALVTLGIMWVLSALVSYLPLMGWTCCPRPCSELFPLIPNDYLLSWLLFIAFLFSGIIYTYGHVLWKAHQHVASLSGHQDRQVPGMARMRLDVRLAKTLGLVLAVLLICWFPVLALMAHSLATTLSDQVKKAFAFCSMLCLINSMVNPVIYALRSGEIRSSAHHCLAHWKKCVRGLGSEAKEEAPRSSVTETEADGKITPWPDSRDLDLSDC
T1 sequence (P21554 whole entry): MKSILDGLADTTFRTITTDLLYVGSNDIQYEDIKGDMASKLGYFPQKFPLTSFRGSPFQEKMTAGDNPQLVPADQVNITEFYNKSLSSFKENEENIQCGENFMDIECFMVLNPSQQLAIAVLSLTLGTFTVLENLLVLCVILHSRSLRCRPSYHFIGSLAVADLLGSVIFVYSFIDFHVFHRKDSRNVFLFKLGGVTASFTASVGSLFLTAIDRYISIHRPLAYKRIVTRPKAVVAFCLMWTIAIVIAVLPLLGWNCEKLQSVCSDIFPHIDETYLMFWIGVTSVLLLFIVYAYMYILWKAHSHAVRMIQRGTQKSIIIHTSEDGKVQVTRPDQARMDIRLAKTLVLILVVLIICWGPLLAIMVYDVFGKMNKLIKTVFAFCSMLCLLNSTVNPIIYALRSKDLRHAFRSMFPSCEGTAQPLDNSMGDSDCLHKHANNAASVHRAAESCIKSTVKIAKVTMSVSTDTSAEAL

Row | Structure (SMILES) | inhibition at 0.05 µM ([1]; RAW264.7, positive control at 50 nM, 24 hours after LPS activation) | reduction in paw thickness ([2]; 0.1 mg/kg) | reduction in paw thickness ([2]; 0.25 mg/kg) | reduction in paw thickness ([2]; 0.5 mg/kg) | calculated IC50 reduction in ear thickness [3] | maximal inhibition (reduction in ear thickness) ([3]; doses 0 to 15 mg/kg, 24 hours after challenge) | IC50 [4] | inhibition at 10 µM [1] | CB2/CB1 affinity ratio [5] | IC50 [5]
1 | C[C@@H]1C[C@H]2[C@@H]3CCC4=CC(=O)C=C[C@]4(C)[C@@]3(F)[C@@H](O)C[C@]2(C)[C@@]1(O)C(=O)CO [Dexamethasone, reference compound] | 97% | 26% | 31% | 33% | 3.2 mg/kg | around 80% |  |  |  | 
2 | CCCCCCC(C)(C)c1cc(O)c([C@H]2C/C(=N/O)[C@H]3C[C@@H]2C3(C)C)c(O)c1 [Compound D] |  |  |  |  |  |  | 0.093 µM | 67% | 27 | 0.0034 µM
3 | CCCCCCC(C)(C)c1cc(OC)c(C2CC(=O)C3CC2C3(C)C)c(OC)c1 (single isomer, unassigned; (-)) [Compound B, (−)-4-[4-(1,1-Dimethyl-heptyl)-2,6-dimethoxy-phenyl]-6,6-dimethyl-bicyclo[3.1.1]heptan-2-one] |  |  |  |  |  |  | 2.8 µM | 34% | 62 | 0.045 µM
4 | CCCCCCC(C)(C)c1cc(O)c(C2CC(O)C3CC2C3(C)C)c(O)c1 (single isomer, unassigned; (-)) [Compound C, (−)-5-(1,1-Dimethyl-heptyl)-2-(4-hydroxy-6,6-dimethylbicyclo[3.1.1]hept-2-yl)-benzene-1,3-diol] |  |  |  |  |  |  | 0.031 µM | 26% | 9 | 0.0035 µM
